# Values of other authors as cited in patent publication US9062031B2, “Method of preparing polymorphic pure form A of bazedoxifene acetate” (SANDOZ AG, priority 2010, dated 2015).
# Legend:
# [1] = solvent or solvent mixture, for example ethylacetate and ethanol
# [2] = aqueous and organic solvent systems
compound,measurement,setting,value
"Cc1c(-c2ccc(O)cc2)n(Cc2ccc(OCCN3CCCCCC3)cc2)c2ccc(O)cc12 [Bazedoxifene x acetate form A, 1-[[4-[2-(Hexahydro-1H-azepin-1-Dethoxy]phenyl]methyl]-2-(4-hydroxyphenyl)-3-methyl-1H-indol-5-ol monoacetate]",Conversion to form B upon contact with solvent,[1],can easily convert to form B
same,Solubility compared with form B,[2],higher solubility than form B
